According to patent publication US10259833B2, “Natural lipids containing non-oxidizable fatty acids” (Bergen Teknologioverføring AS, priority 2013, dated 2019):
Values belong to the compound of their own block, whether it stands above or below them.

Assays:
[1] = degradation time in vivo of ω-oxidation-blocked fatty acid analogue; conditions: triple bond at the methyl end blocks ω-oxidation
Text: ω-oxidation is believed to be the main pathway for degradation of the fatty acid analogues as described with a block in the X position. Fatty acid analogues in which R′ was changed by introducing a triple bond at the methyl end of the fatty acid analogue block ω-oxidation. […] Thus, this modification finds use in embodiments of the technology to potentiate the effects of the β-oxidizable fa acid analogues by further slowing down their breakdown.

interleukin-2 = conditions: cited from earlier work
[2] = rats, 12 weeks; cited from earlier work
cancer cell lines = conditions: many cancer cell lines; cited from earlier work
PPARγ = target: T1, PPARγ (Homo sapiens, UniProt P37231); conditions: cited from earlier work
T1 sequence (P37231 1-505): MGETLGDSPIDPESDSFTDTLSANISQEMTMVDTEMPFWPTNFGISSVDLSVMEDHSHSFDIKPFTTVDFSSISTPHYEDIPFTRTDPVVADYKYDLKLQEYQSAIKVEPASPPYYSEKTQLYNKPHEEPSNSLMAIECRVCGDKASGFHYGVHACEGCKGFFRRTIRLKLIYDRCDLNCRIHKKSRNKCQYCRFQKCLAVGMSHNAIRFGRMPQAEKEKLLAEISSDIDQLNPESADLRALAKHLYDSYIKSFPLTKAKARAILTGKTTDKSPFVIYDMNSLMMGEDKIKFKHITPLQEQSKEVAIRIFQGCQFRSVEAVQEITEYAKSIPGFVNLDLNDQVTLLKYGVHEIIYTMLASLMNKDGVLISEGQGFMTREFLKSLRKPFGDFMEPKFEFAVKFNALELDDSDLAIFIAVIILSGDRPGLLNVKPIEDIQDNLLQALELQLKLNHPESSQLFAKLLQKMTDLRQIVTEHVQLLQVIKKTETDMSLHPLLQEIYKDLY

[3] = TTA alone; cited from earlier work
acyl-CoA oxidase = conditions: substance alone; cited from earlier work
[4] = moderate doses, within days of treatment; cited from earlier work
PPARα = target: T2, PPARα (Homo sapiens, UniProt Q07869); conditions: cited from earlier work
T2 sequence (Q07869 1-468): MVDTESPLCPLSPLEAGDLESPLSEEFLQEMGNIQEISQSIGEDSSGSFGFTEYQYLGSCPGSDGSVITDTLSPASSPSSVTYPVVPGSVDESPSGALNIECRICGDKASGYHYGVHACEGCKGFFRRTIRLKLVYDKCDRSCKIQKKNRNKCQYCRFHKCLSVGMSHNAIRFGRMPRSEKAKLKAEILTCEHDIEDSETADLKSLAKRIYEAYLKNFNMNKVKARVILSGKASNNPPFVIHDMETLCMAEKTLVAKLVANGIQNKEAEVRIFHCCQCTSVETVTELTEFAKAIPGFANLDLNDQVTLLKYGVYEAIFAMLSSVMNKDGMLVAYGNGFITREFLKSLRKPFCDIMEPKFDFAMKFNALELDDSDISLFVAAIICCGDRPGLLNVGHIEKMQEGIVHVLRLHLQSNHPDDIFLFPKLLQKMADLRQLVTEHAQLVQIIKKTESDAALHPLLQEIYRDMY

PPARβ = target: T3, PPARβ (Homo sapiens, UniProt Q03181); conditions: cited from earlier work
T3 sequence (Q03181 1-441): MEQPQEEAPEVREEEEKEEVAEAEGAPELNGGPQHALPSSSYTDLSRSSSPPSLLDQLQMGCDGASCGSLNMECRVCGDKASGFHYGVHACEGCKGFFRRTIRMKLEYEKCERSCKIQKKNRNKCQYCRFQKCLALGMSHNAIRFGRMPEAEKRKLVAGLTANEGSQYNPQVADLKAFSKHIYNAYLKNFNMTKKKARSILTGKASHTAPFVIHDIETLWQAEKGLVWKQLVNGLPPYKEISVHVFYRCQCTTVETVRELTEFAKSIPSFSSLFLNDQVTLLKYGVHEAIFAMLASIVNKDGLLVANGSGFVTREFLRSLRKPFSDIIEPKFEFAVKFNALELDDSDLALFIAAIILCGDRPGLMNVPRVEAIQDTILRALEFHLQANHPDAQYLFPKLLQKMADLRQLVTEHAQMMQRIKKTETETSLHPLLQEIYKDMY

[5] = test system: peripheral mononuclear cells; conditions: cited from earlier work
[6] = test system: mitochondrial β-oxidation in the liver; conditions: sulfur in 3, 5 or 7 position relative to carboxyl end; cited from earlier work

- degradation time in vivo [1]: substantially increased degradation time
Structure (SMILES): CC#CCCCCCCCCCCCSCC [3-thia-15-heptadecyne]

Structure (SMILES): CCCCCCCCCCCCCCSCC(=O)O [TTA, tetradecylthioacetic acid]
- release of interleukin-2 (interleukin-2): depressing the release
- hepatic and plasma content of monounsaturated fatty acids (mainly oleic acid) [2]: nearly doubled
- polyunsaturated fatty acids (mainly linoleic acid and DHA) [2]: decreased
- proliferation of cancer cell lines (cancer cell lines): reduce proliferation
- PPARγ activation (PPARγ): activate
- effect on plasma triacylglycerol level [3]: reduces plasma triacylglycerol level
- effect on acyl-CoA oxidase activity (acyl-CoA oxidase): large increase
- plasma cholesterol and triacylglycerol levels [4]: decreases
- PPARα ligand (PPARα): potent ligands
- PPARβ activation (PPARβ): activate
- PHA stimulated proliferation of peripheral mononuclear cells [5]: suppressing

Structure (SMILES): CCCCCCCCCCCCCCCC(=O)O [palmitic acid]
- mitochondrial β-oxidation activity [6]: 0.47
